Results reported in article PMC11123773, “Identification of New Substrates and Inhibitors of Human CYP2A7” (Molecules, 2024).
Numbering of substitutions follows the chain as printed. Read-outs that look alike come from different tables or passages of the source.

How the values were obtained:
CYP2A6*1 [1] = target: T1, CYP2A6*1 (Homo sapiens, UniProt P11509); assay: in vitro
T1 sequence (P11509 1-494): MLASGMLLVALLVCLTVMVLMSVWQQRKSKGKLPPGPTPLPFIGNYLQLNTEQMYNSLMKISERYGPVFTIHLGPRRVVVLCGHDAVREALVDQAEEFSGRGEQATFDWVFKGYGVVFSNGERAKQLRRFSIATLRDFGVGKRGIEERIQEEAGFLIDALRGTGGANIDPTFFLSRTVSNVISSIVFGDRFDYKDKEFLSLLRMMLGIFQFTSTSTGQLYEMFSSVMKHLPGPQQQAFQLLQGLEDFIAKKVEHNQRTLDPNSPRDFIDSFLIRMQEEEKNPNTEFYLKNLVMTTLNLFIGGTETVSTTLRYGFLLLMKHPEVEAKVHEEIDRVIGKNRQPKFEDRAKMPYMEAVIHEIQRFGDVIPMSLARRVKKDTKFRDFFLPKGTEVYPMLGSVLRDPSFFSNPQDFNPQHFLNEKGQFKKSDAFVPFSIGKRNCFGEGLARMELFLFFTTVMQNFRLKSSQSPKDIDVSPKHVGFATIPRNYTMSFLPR

CYP2A7*1 [2] = target: T2, CYP2A7*1 (Homo sapiens, UniProt P20853); assay: in vitro
T2 sequence (P20853 1-494): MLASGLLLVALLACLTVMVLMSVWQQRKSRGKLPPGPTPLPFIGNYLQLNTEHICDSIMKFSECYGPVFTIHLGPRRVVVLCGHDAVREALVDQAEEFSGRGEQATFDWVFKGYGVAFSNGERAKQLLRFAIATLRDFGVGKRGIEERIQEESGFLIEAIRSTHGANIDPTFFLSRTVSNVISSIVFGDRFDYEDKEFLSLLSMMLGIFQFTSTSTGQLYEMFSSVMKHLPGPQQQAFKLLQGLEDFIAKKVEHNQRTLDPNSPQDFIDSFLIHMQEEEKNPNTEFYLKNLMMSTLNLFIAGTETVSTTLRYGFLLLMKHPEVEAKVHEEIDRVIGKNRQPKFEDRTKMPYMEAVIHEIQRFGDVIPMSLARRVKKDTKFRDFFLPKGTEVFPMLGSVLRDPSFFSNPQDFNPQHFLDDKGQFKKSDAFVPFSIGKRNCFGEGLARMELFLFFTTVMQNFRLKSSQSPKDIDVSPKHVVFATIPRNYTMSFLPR

CYP2A7-WT [3] = target: T3, CYP2A7-WT (Homo sapiens, UniProt P20853, D169E/H274R/R311C/V479G); assay: in vitro
T3 sequence (P20853 1-494 D169E/H274R/R311C/V479G): T2 sequence (P20853 1-494) with D169E, H274R, R311C, V479G

CYP2A7-WT [4] = target: T3, CYP2A7-WT; assay: Fluorescence detection of coumarin 7-hydroxylation and deethylation of 7-ethoxycoumarin; type: biochemical; set-up: expressed in transfected cells; host or cells: Schizosaccharomyces pombe strain AA01 (pREP1-CYP2A7-WT in CAD62), permeabilized cells (enzyme bags); conditions: by CYP2A7-WT; fluorometric
Procedure: (§1) The fluorescence activity of CYP enzymes was measured as described with slight modifications. The solution was shaken at 37 °C for 3 h in the dark at a 50 µL final reaction volume. Afterwards, reactions were stopped by adding 350 µL ethyl acetate. The reaction tubes were vortexed for 5 min before centrifugation at 16,000× g for 8 min. Finally, 200 µL of the upper phase was extracted three times with 350 µL of ethyl acetate each. In the last step, the reaction tubes were air-dried in the dark. For reconstituting the pellet we added 50 µL of methanol, which was later followed by the addition of 250 µL of 0.01 M NaOH. The amounts of de-ethylated products were quantified by using standard solutions of 7-hydroxycoumarin and 7-ethoxycoumarin. The concentrations of 7-hydroxycoumarin were determined fluorometrically with 50 µL volume using Grenier microlon flat-bottom 96-well black plates. The energies for excitation and emission were set at 368 and at 530 nm, respectively. All readings were taken in triplicate.

CYP2A6*1 [5] = target: T1, CYP2A6*1; assay: as above; type: biochemical; set-up: expressed in transfected cells; host or cells: Schizosaccharomyces pombe strain RAJ122 (pREP1-CYP2A6*1 in CAD62), permeabilized cells (enzyme bags); conditions: by CYP2A6*1; fluorometric
Procedure: as §1

CYP2A7*1 [6] = target: T2, CYP2A7*1; assay: as above; type: biochemical; set-up: expressed in transfected cells; host or cells: Schizosaccharomyces pombe strain RAJ127 (pREP1-CYP2A7*1 in CAD62), permeabilized cells (enzyme bags); conditions: by CYP2A7*1; fluorometric
Procedure: as §1

CYP2A7-WT [7] = target: T3, CYP2A7-WT; assay: Conversion of luminogenic (proluciferin) substrates by permeabilized fission yeast cells (enzyme bags); type: biochemical; set-up: expressed in transfected cells; host or cells: Schizosaccharomyces pombe strain AA01 (pREP1-CYP2A7-WT in CAD62), permeabilized cells (enzyme bags); conditions: for Luminescence (RLU): enzyme CYP2A7-WT coexpressed with CPR, compound as substrate, 3 h, 37 °C, mean ± SD
Procedure: (§2) Briefly, a concentrated CYP reaction mixture (containing a fourfold concentrated substrate and potassium phosphate buffer) was added to the cell pellets after the permeabilization and washing process. For inhibition assays, the CYP reaction mixtures with the inhibitors at a final concentration of 10 µM were pre-incubated at 37 °C for 10 min. CYP reactions were commenced by adding the twofold concentrated NADPH regeneration system. Samples were incubated for 3 h at 37 °C and 1000 rpm. After centrifugation at 16,000× g for 1 min, the supernatants were transferred to the white microtiter plates and an equal amount of reconstituted luciferin detection reagent was added to each well. Plates were then incubated at room temperature for 20 min and the luminescence was recorded on a Magellan infinite 200Pro microplate reader (Tecan; Männedorf, Switzerland). For the proluciferin substrates’ screening, the specific reaction conditions and substrate concentrations were as given in the instructions of the manufacturer (Promega). […] For inhibitor assays, ketoconazole, 1-benzylimidazole, and letrozole were added to a final concentration of 10 µM. All measurements were done at least three times in triplicates.

CYP2A7*1 [8] = target: T2, CYP2A7*1; assay: as above; type: biochemical; set-up: expressed in transfected cells; host or cells: Schizosaccharomyces pombe strain RAJ127 (pREP1-CYP2A7*1 in CAD62), permeabilized cells (enzyme bags); conditions: for Conversion of luminogenic substrate (in words): by CYP2A7*1, vs. negative control (CPR only); for Luminescence (RLU): enzyme CYP2A7*1 coexpressed with CPR, compound as substrate, 3 h, 37 °C, mean ± SD
Procedure: as §2

CYP2A6*1 [9] = target: T1, CYP2A6*1; conditions: by CYP2A6*1, vs. negative control (CPR only)
Procedure: This was performed as described previously with slight modifications. Briefly, fission yeast cells were cultured on EMM plates with 5 µM thiamine for 3 days at 30 °C. A single yeast colony was then transferred to a 10 mL liquid culture of EMM without thiamine and cultured at 30 °C and 230 rpm for 36 h. As the recombinant expression of the human enzymes is controlled by the strong endogenous nmt1 promoter, all subsequent cultures were cultured in the absence of thiamine to keep the promoter in an active state. For each activity assay, 5 × 10^7 cells (stationary growth phase) were transferred to 1.5 mL Eppendorf tubes (Axygen; Silicon Valley, USA), pelleted, and incubated in 1 mL of 0.3% Triton-X100 in Tris-KCl buffer (200 mM KCl, 100 mM Tris-HCl pH 7.8) at room temperature for 60 min at 150 rpm for permeabilization. After three washes with 1 mL NH4HCO3 buffer (50 mM, pH 7.8), cells were resuspended in phosphate buffer (pH 7.4) and then the substrate and the NADPH regeneration system were added to a total volume of 50 µL. The samples were incubated at 37 °C and 1000 rpm for 3 h. […]
This was performed as described previously with slight modifications. […] Plates were then incubated at room temperature for 20 min and the luminescence was recorded on a Magellan infinite 200Pro microplate reader (Tecan; Männedorf, Switzerland). […]

CYP2A6*1 [10] = target: T1, CYP2A6*1; conditions: by CYP2A6*1; nicotine 250 µM
Procedure: (§3) This was performed as described previously with slight modifications. Briefly, fission yeast cells were cultured on EMM plates with 5 µM thiamine for 3 days at 30 °C. A single yeast colony was then transferred to a 10 mL liquid culture of EMM without thiamine and cultured at 30 °C and 230 rpm for 36 h. As the recombinant expression of the human enzymes is controlled by the strong endogenous nmt1 promoter, all subsequent cultures were cultured in the absence of thiamine to keep the promoter in an active state. For each activity assay, 5 × 10^7 cells (stationary growth phase) were transferred to 1.5 mL Eppendorf tubes (Axygen; Silicon Valley, USA), pelleted, and incubated in 1 mL of 0.3% Triton-X100 in Tris-KCl buffer (200 mM KCl, 100 mM Tris-HCl pH 7.8) at room temperature for 60 min at 150 rpm for permeabilization. After three washes with 1 mL NH4HCO3 buffer (50 mM, pH 7.8), cells were resuspended in phosphate buffer (pH 7.4) and then the substrate and the NADPH regeneration system were added to a total volume of 50 µL. The samples were incubated at 37 °C and 1000 rpm for 3 h. For LC-MS analysis, the reaction mixture was extracted with an equal amount of ethyl acetate by centrifugation, and the supernatants were stored at −20 °C until use.
(§4) An Agilent HPLC/microTOF-Q II instrument equipped with a LiChrospher 100 RP-18 column was used to carry out all analytical procedures. The mobile phase that we used was a mixture of water with 0.05% formic acid as phase A and 100% acetonitrile as B, run at a constant flow of 0.3 mL/min for 45 min. The gradient used was 0–20 min (80% A: 20% B to 80% B), 20–30 min (100% B), 30–35 min again (100% B), and 35–45 min (80% A: 20% B). We used positive electrospray ionization mode at a capillary voltage of 4.5 kV for mass spectrometry.

CYP2A7*1 [11] = target: T2, CYP2A7*1; conditions: by CYP2A7*1; nicotine 250 µM
Procedure: as §3, §4

CYP2A7-WT [12] = target: T3, CYP2A7-WT; conditions: by CYP2A7-WT; nicotine 250 µM
Procedure: as §3, §4

[13] = pH 7.4, probe Luciferin-H (100 µM)

c1ccc(Cn2ccnc2)cc1 [1-Benzyl-imidazole]
inhibition at 3 h, 10 µM (CYP2A6*1 [1]): 64 ± 12%
inhibition at 3 h, 10 µM (CYP2A7*1 [2]; pH 7.4): 55 ± 11%
inhibition at 3 h, 10 µM (CYP2A7-WT [3]; pH 7.4): 80 ± 21%

CCOc1ccc2ccc(=O)oc2c1 [7-ethoxycoumarin]
Conversion to 7-hydroxycoumarin (CYP2A7-WT [4]): no reaction was observed
Conversion to 7-hydroxycoumarin (CYP2A6*1 [5]): confirmed the activity
Conversion to 7-hydroxycoumarin (CYP2A7*1 [6]): no reaction was observed

O=c1ccc2ccccc2o1 [Coumarin, coumarin]
Conversion to 7-hydroxycoumarin (CYP2A7-WT [4]): no reaction was observed
Conversion to 7-hydroxycoumarin (CYP2A6*1 [5]): confirmed the activity
Conversion to 7-hydroxycoumarin (CYP2A7*1 [6]): no reaction was observed

CC(=O)N1CCN(c2ccc(OCC3COC(Cn4ccnc4)(c4ccc(Cl)cc4Cl)O3)cc2)CC1 (centres unmarked) [Ketoconazole]
inhibition at 3 h, 10 µM (CYP2A6*1 [1]; probe Luciferin-H (100 µM)): 70 ± 11%
inhibition at 3 h, 10 µM (CYP2A7*1 [2]; [13]): 74 ± 4%
inhibition at 3 h, 10 µM (CYP2A7-WT [3]; [13]): 58 ± 17%

N#Cc1ccc(C(c2ccc(C#N)cc2)n2cncn2)cc1 [Letrozole]
inhibition at 3 h, 10 µM (CYP2A6*1 [1]; probe Luciferin-H (100 µM)): 64 ± 10%
inhibition at 3 h, 10 µM (CYP2A7*1 [2]; [13]): 78 ± 7%
inhibition at 3 h, 10 µM (CYP2A7-WT [3]; [13]): 72 ± 13%

O=C(O)[C@H]1CSC(c2nc3ccc(OCc4ccccc4)cc3s2)=N1 [Luciferin-BE]
Luminescence (RLU) (CYP2A7-WT [7]): 6312 ± 699 RLU
Conversion of luminogenic substrate (in words) (CYP2A7*1 [8]): are CYP2A7*1 substrates
Luminescence (RLU) (CYP2A7*1 [8]): 16,216 ± 369 RLU

COc1ccc2nc(C3=NC(C(=O)O)CS3)sc2c1 (centres unmarked) [Luciferin-ME]
Conversion of luminogenic substrate (in words) (CYP2A6*1 [9]): can both metabolize
Conversion of luminogenic substrate (in words) (CYP2A7-WT [7]; by CYP2A7-WT, vs. negative control (CPR only)): also acted on both substrates
Luminescence (RLU) (CYP2A7-WT [7]): 439 ± 113 RLU
Conversion of luminogenic substrate (in words) (CYP2A7*1 [8]): can both metabolize
Luminescence (RLU) (CYP2A7*1 [8]): 276 ± 63 RLU

CN1CCC[C@H]1c1cccnc1 [nicotine]
Metabolization of nicotine to the nicotine iminium ion (CYP2A6*1 [10]): confirmed the metabolization
Metabolization of nicotine to the nicotine iminium ion (CYP2A7*1 [11]): no nicotine metabolite was found
Metabolization of nicotine to the nicotine iminium ion (CYP2A7-WT [12]): no nicotine metabolite was found
